Data: patent US9056891B2, “Synthetic peptide inhibitors of Wnt pathway” (The United States of America, as represented by the …, priority 2010, dated 2015)
Where a SMILES comes first, the peptide text is derived from it. [ ]: non-standard residue; d: D form. The star is where a group is joined. Palmitoyl = CCCCCCCCCCCCCCCC(=O)*

Tests used:
SW480 cells = experiment: Toxicity (growth inhibition) for SW-480 cells; format: cell-based, human; parameters: unit not given here
Procedure: (§1) Further optimization and testing of inhibitors was performed using this cell line. Table 5 presents toxicity data for select inhibitors for 4T1 cells and human colon cancer cell line SW-480, wherein GI50 is the concentration providing 50% growth inhibition and TGI is the total growth inhibition.

[1] = tested on: 4T1 mouse breast cancer cells; experiment: Colony formation by 4T1 cells; format: cell-based; details: 5 μM and 10 μM
Source text: The activity of compounds in inhibiting colony formation by 4T1 cells was also investigated, which test provides a prediction for compound's potency in vivo.

4T1 cells = experiment: Toxicity (growth inhibition) for 4T1 cells; format: cell-based, mouse
Procedure: To identify a mouse model for preclinical development of compounds, mouse cell lines were tested for (1) growth inhibition by the compounds and (2) the levels of constitutive Wnt signaling TCF-reporter activity using transfection of cell with TCF/LEF-responsive firefly luciferase construct. The data further confirmed that sensitivity to compounds correlated well with the levels of canonical Wnt signaling.
Based on the data, mouse breast cancer cell line 4T1 was selected for in vivo testing.
as §1

RKO cells = format: cell-based; details: 48 h
Procedure: (§2) HeLa, U3A, RKO, HCT-116, and HT-29 cells were exposed to the CT-HC-1, CT-HC-3, CT-HC-5, and CT-HC-8 inhibitors of Example 1 for 48 hours in medium containing 1% bovine fetal serum, and the resulting cell number was evaluated using a MTT assay. Each of these cell lines is relevant to the evaluation of Wnt signaling. Cervical carcinoma HeLa cells overexpress β-catenin (see, e.g., Lee et al., Int. J. Cancer, 124(2): 287-297 (2009); and Lee et al., Gynecol. Oncol., 109(2): 270-274 (2008)). β-catenin is activated in colon carcinoma RKO due to mutation in CDX2 (see, e.g., Dang et al., Oncogene, 20(35): 4884-4890 (2001)). Colon adenocarcinoma HCT116 has elevated mutated β-catenin; however, it was found in the past to be resistant to down regulation of β-catenin (see, e.g., Chan et al., Proc. Natl. Acad. Sci. USA, 99(12): 8265-8270 (2002); and Handeli et al., Mol. Cancer Ther., 7(3): 521-529 (2008)). Colon carcinoma HT-29 has truncated adenomatous polyposis coli (APC) protein, which is a common cause of canonical Wnt pathway activation in colon malignancies. Fibrosarcoma U3A cells are STAT1-negative and have uncharacterized status of Wnt pathway.
(§3) The ability of CT-HC-1 to inhibit growth and to kill cancer cells at different concentrations was further investigated in HeLa, U3A, RKO, HCT-116, and HT-29 cells. The cells were stained with Promega Non-Radioactive Cell Proliferation Assay Kit (MTT) according to the manufacture's protocol. The absorbance of the wells was determined at 544 nm by a FLUOstar/POLARstar Galaxy (BMG Lab Technologies GmbH) Microplate Reader. The assays were performed on control (C) and test (T) cells. Untreated cells were used as a control. Cellular responses were calculated from the data using the following formula: 100×[(T−T0)/(C−T0)] for T>T0 and 100×[(T−T0)/T0] for T<T0. T0 corresponds to cell density at the time of drug addition.

U3A cells = format: cell-based; details: 48 h
Procedure: as §2, §3

HeLa cells = format: cell-based; details: 48 h
Procedure: as §2, §3

HT-29 cells = format: cell-based; details: 48 h
Procedure: as §2, §3

[2] = tested on: RKO, HT-29, HCT-116, SW-480, and SW-620 cells; experiment: Cell viability of colon cancer cells (FIGS. 2A-C); format: cell-based; details: increasing concentrations, HT-29, HCT-116, SW-480, SW-620
Procedure: The concentration (μM) of the peptide inhibitor is indicated on the x-axis and the percent viability is indicated on the y-axis.
A similar experiment was performed using RKO, HT-29, HCT-116, SW-480, and SW-620 cells. Colorectal adenocarcinoma SW-480 and SW-620 cells have truncated APC protein, which—as discussed above—is a common cause of canonical Wnt pathway activation in colon malignancies.

GFP-tagged beta-catenin = molecular target: T1, GFP-tagged beta-catenin (Homo sapiens, UniProt P35222); experiment: Microscale thermophoresis of GFP-tagged beta-catenin; format: binding; details: HEK293 lysate, membrane-mimicking bicelles, Hill fit
T1 construct: made in house; host or cells: HEK293 cells (unpurified lysate)
T1 sequence (P35222 1-781): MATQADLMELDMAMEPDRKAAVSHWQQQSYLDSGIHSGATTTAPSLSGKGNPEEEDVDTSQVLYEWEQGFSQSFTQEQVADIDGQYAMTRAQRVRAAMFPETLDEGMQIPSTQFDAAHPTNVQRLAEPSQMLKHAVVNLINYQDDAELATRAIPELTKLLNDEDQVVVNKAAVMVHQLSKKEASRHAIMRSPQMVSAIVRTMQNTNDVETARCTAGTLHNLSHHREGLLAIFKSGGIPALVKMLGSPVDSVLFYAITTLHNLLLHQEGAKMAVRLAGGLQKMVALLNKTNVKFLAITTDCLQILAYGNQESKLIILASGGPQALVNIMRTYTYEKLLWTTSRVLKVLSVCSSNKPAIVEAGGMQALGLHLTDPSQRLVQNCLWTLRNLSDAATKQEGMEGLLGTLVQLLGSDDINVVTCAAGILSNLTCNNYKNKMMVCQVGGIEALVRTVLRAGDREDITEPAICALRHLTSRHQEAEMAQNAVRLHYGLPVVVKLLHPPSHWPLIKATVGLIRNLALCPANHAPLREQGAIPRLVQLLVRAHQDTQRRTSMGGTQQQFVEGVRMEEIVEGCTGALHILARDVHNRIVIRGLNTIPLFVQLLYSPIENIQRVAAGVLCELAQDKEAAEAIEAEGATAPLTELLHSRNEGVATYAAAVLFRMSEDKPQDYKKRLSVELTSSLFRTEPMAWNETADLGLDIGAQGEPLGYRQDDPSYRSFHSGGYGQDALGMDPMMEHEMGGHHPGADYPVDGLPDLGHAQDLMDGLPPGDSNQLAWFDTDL
Procedure: Briefly, beta-catenin was overexpressed as a GFP-fusion in HEK293 cells. The cells were lysed with ultrasound, and the resulting lysate was mixed with increasing concentrations of CT-HC-5 in the presence of membrane-mimicking bicelles. Thermophoretic mobility was measured in standard capillaries on Monolith NT.115 (NanoTemper Technologies).

HCT-116 cells = format: cell-based, human; details: 48 h
Procedure: as §2, §3

- GI50 (HeLa cells): 1200 ± 90 nM
- GI50 (HT-29 cells): 2000 ± 100 nM
- Kd (GFP-tagged beta-catenin): 2700 ± 200 nM
- GI50 (HCT-116 cells): 2400 ± 400 nM
Structure (SMILES): CCCCCCCCCCCCCCCC(=O)N[C@@H](C(=O)N[C@H](CCCNC(=N)N)C(=O)N[C@H](Cc1ccccc1)C(=O)N[C@H](CC(C)C)C(=O)N[C@H](CO)C(=O)N[C@H](CO)C(=O)N[C@@H](C(=O)N[C@H](CC(C)C)C(=O)N[C@H](CCC(=O)O)C(=O)N[C@@H](C(=O)N[C@H](CO)C(=O)N[C@H](CC(C)C)C(=O)N[C@H](CCCNC(=N)N)C(=O)N[C@H](CCCCN)C(=O)N[C@H](CCCCN)C(N)=O)C(C)C)[C@H](C)O)[C@H](C)O [CT-HC-5, Pal-TRFLSSTLEVSLRKK-NH2] (Palmitoyl-[dT][dR][dF][dL][dS][dS][dT][dL][dE][dV][dS][dL][dR][dK][dK]-NH2)
- SW480 cells TGI (total growth inhibition) (SW480 cells): 2.5
- colony formation by 4T1 cells [1]: inhibited colony formation
- 4T1 cells TGI (total growth inhibition) (4T1 cells): > 5 µM
- GI50 (RKO cells): 1150 ± 50 nM
- GI50 (U3A cells): 1500 ± 100 nM
- cell viability [2]: suppression of cell viability
